# Patent US8338420B1, “Treatment of Parkinson's disease and enhancement of dopamine signal using PDE 10 inhibitor” (Mitsubishi Tanabe Pharma Corporation, priority 2002, dated 2012)
# Legend:
# PDE10 (PDE10A) = assay: Measurement of PDE10 inhibitory activity (radiolabeled nucleotide PDE assay); type: biochemical, bovine; details: versus PDE1, 2, 3, 4, 5, 6, 7, 8, 9 and 11; IC50 value of 1/100 or less
# Text: (1) Enzyme Preparation of PDE10 (PDE10A)
# According to the methods described in Fujishige et al. (Fujishige et al., Eur. J. Biochem., vol. 266, pp. 1118-1127, 1999; and Mukai et al., Br. J. Pharmacol., vol. 111, pp. 389-390, 1994), the enzyme PDE10A was isolated and prepared as follows.
# At first, corpus striatum was excised from bovine whole brain (Japanese Black Cattle, purchased from Tokyo Shibaura Zoki, co., Ltd.), and washed with ice-cold saline (0.9% sodium chloride). After the tissues were cut in a proper size, it was frozen by liquid nitrogen, and stored at −80° C. […]
# The PDE assay was performed using the enzyme solution obtained in the above (1), and inhibitory activities of the compounds on PDE10 (PDE10A) were measured. […]
# After the reaction was carried out while keeping the temperature at 37° C. for 30 minutes, the reaction was stopped by boiling the reaction mixture for 2 minutes, and further added thereto was 100 μl of snake venom (Crotalus atrox snake venom 1 mg/ml) and the temperature was kept at 37° C. for 30 minutes. […] Scintillation cocktail was added to each of the eluates, and the radioactivity was measured by scintillation counter. From them, PDE activity taking cAMP as a substrate (an activity to hydrolyze cAMP) was measured. […]
# marmoset MPTP model = assay: Marmoset MPTP model, effect on bromocriptine efficacy; type: in vivo; details: together with bromocriptine (0.3 mg/kg), versus vehicle with bromocriptine
# Method: Using bromocriptine (bromocriptine mesilate) as a dopamine receptor agonist, effect of test compound on pharmaceutical effects caused by administration of dopamine receptor agonist, in marmoset MPTP model was tested as follows.
# The same method was employed as in Example 6, except for using bromocriptine (bromocriptine mesilate) in place of L-dopa and benserazide.
# Each test was performed with respect to the same individual sequentially, and intervals of 5 days or more were allowed between the tests. • test 1: vehicle • test 2: vehicle and bromocriptine mesilate • test 3: test compound (PDE10 inhibitor) and bromocriptine mesilate
# […] Further, as test compounds, compounds confirmed with PDE10 inhibitory activities were administered via saphenous vein, 90 minutes before administration of bromocriptine mesilate, under anesthesia by ketamine and isoflurane (In test 1 and test 2, only vehicle was administered in place of the test compound in the same manner).
# Bromocriptine mesilate was suspended in 0.5% methylcellulose solution on the day of administration and used. Test compound (PDE10 inhibitor) was dissolved in a solvent 30 minutes before administration and used.
# After administration of test compound (PDE10 inhibitor) (or vehicle) and bromocriptine mesilate, locomotor activity and motor disability score were evaluated for each individual, in the same manner as in Example 6. […]
smiles,measurement,setting,value
"COc1ccc(-c2cc(N3CCCC3)nc(/C=C/c3nc(-n4ccnc4)c4ccccc4n3)n2)cc1OC [Compound A, 2-{(E)-2-[4-(1-imidazolyl)-quinazolin-2-yl]}ethenyl-4-(3,4-dimethoxy)phenyl-6-(pyrrolidin-1-yl)pyrimidine]",inhibitory activity on PDE10 as compared to other PDE families (selectivity),PDE10 (PDE10A),≥ 100 times
same,effects of bromocriptine to alleviate symptoms (locomotor activity and motor disability score),marmoset MPTP model,had a tendency to enhance the effects of bromocriptine to alleviate symptoms
